Assay results: ChEMBL document CHEMBL5038669, “Development of the First Covalent Monopolar Spindle Kinase 1 (MPS1/TTK) Inhibitor” (J Med Chem, 2022)
Calls of active or inactive are those of the source. The rule behind the calls is not given here.

Legend:
[1] = target: T1, Dual specificity protein kinase TTK (Homo sapiens) (UniProt P33981); experiment: Displacement of tracer K9 from NanoLuc-fused MPS1 (unknown origin) expressed in HEK293T cells at 10 fold IC50 preincubated for 2 hrs followed by compound washout by NanoBRET assay; type: cell-based
T1 sequence (whole entry): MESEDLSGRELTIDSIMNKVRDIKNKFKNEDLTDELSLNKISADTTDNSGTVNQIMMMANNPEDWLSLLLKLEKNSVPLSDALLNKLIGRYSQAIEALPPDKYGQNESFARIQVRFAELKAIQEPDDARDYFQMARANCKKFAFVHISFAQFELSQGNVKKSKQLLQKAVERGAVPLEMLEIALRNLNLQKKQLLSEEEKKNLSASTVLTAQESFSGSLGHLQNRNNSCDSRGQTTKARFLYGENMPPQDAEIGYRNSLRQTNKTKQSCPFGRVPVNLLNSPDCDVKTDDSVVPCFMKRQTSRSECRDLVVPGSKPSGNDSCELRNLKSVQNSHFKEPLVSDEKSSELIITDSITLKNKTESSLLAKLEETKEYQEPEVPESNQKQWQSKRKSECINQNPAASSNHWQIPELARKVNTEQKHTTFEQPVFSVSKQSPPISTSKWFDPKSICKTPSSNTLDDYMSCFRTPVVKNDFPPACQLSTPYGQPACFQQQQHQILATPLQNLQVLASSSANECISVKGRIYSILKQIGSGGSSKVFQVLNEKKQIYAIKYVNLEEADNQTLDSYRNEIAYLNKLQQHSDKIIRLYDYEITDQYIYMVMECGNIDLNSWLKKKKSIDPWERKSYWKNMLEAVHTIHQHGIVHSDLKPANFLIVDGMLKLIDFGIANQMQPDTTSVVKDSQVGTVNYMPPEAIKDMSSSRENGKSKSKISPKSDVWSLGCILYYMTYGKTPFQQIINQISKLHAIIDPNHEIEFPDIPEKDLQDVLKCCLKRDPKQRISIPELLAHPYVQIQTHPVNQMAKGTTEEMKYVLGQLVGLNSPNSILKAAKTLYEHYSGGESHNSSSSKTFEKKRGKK

[2] = target: T2, Serine/threonine-protein kinase 17B (Homo sapiens) (UniProt O94768); details: dose 10.0 µM
T2 sequence (whole entry): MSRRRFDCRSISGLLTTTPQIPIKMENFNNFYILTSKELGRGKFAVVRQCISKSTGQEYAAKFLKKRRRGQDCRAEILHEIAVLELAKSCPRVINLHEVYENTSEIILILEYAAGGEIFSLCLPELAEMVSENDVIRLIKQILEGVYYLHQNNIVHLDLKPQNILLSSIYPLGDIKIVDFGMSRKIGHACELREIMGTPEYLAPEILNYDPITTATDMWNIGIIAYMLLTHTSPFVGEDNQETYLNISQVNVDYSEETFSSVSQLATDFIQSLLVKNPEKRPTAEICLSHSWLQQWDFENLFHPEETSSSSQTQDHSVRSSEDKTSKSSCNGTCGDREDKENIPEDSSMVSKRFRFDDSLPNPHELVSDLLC

[3] = target: T3, Dual specificity protein kinase TTK (Homo sapiens, UniProt P33981); experiment: Displacement of tracer K9 from NanoLuc-fused MPS1 (unknown origin) expressed in HEK293T cells measured after 2 hrs by NanoBRET assay; type: cell-based
T3 sequence (P33981 whole entry): T1 sequence (whole entry)

[4] = target: T3, Dual specificity protein kinase TTK; experiment: Inhibition of recombinant human full length N-terminal GST-fused MPS1 (1 to 857 residues) using histone H3 as substrate by TR-FRET assay

Row | Structure (SMILES) | Activity [1] | ΔTm [2] | IC50 [3] | IC50 [4]
1 | COc1cc(OC2CCN(C)CC2)ccc1Nc1ncc2c(n1)n(C1CCCC1)c(=O)n2C | inactive | 11.5 °C | – | –
2 | CCC(=O)Nc1cc(N2CCN(C)CC2)ccc1Nc1ncc2c(n1)-n1ccc(C(=O)Nc3c(CC)cccc3CC)c1CC2 | – | 17.4 °C | 32.7 nM | 9.06 nM
